In the supplement of paper PMC10307832:

What was measured:
Test in all cases: relative viability (nuclei count vs DMSO), 5 days (fraction); higher = more cells survive
EMC-BAC-2 = test system: EMC-BAC-2
Method in brief: (§1)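 After 5 days of treatment, lung cancer cells in 1536-well plates were fixed and stained in a single step (final 0.05% Triton X-100, 1% formaldehyde, 1 ug/ml Hoechst) and their nuclei counted on 4× images. Treatment had been applied by pin tool the day after seeding as one drug alone or as a fixed anchor-drug dose with five library-drug doses (not always all listed) in √10 steps. Relative viability is the nuclei count of treated wells divided by that of vehicle wells, and values are medians of duplicate plates.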

SK-MES-1 = test system: SK-MES-1
Method in brief: as §1

NCI-H3122 = test system: NCI-H3122
Method in brief: as §1

NCI-H727 = test system: NCI-H727
Method in brief: as §1

ABC-1 = test system: ABC-1
Method in brief: as §1

NCI-H322M = test system: NCI-H322M
Method in brief: as §1

NCI-H2009 = test system: NCI-H2009
Method in brief: as §1

LK-2 = test system: LK-2
Method in brief: as §1

HOP-62 = test system: HOP-62
Method in brief: as §1

NCI-H1944 = test system: NCI-H1944
Method in brief: as §1

NCI-H2228 = test system: NCI-H2228
Method in brief: as §1

A-427 = test system: A-427
Method in brief: as §1

SW 1573 = test system: SW 1573
Method in brief: as §1

NCI-H2170 = test system: NCI-H2170
Method in brief: as §1

NCI-H596 = test system: NCI-H596
Method in brief: as §1

PC-3 [JPC-3] = test system: PC-3 [JPC-3]
Method in brief: as §1

LXF-289 = test system: LXF-289
Method in brief: as §1

NCI-H1792 = test system: NCI-H1792
Method in brief: as §1

HARA = test system: HARA
Method in brief: as §1

NCI-H1993 = test system: NCI-H1993
Method in brief: as §1

`O=c1cc(N2CCOCC2)oc2c(-c3cccc4c3sc3ccccc34)cccc12` + C[C@@H](Oc1cc(-c2cnn(C3CCNCC3)c2)cnc1N)c1c(Cl)ccc(F)c1Cl [Crizotinib] (partner 1 µM) showed a relative viability (EMC-BAC-2; first compound 0.01 µM) of 0.787, a relative viability (EMC-BAC-2; first compound 0.03162 µM) of 0.788 and a relative viability (EMC-BAC-2; first compound 0.1 µM) of 0.847. The relative viability (EMC-BAC-2; first compound 0.3162 µM) was 0.77, the relative viability (EMC-BAC-2; first compound 1 µM) was 0.735 and the relative viability (SK-MES-1; first compound 0.01 µM) was 0.965. The relative viability (SK-MES-1; first compound 0.03162 µM) was 0.991, the relative viability (SK-MES-1; first compound 0.1 µM) was 1.01 and the relative viability (SK-MES-1; first compound 0.3162 µM) was 1.01. It also gave a relative viability (SK-MES-1; first compound 1 µM) of 1.04, a relative viability (NCI-H3122; first compound 0.01 µM) of 0.269 and a relative viability (NCI-H3122; first compound 0.03162 µM) of 0.273. It also gave a relative viability (NCI-H3122; first compound 0.1 µM) of 0.274, a relative viability (NCI-H3122; first compound 0.3162 µM) of 0.297 and a relative viability (NCI-H3122; first compound 1 µM) of 0.284. For the same compound, the relative viability (NCI-H727; first compound 0.01 µM) was 0.887, the relative viability (NCI-H727; first compound 0.03162 µM) was 0.893 and the relative viability (NCI-H727; first compound 0.1 µM) was 0.751. For the same compound, the relative viability (NCI-H727; first compound 0.3162 µM) was 0.734, the relative viability (NCI-H727; first compound 1 µM) was 0.932 and the relative viability (ABC-1; first compound 0.01 µM) was 1.26. For the same compound, the relative viability (ABC-1; first compound 0.03162 µM) was 0.654, the relative viability (ABC-1; first compound 0.1 µM) was 0.983 and the relative viability (ABC-1; first compound 0.3162 µM) was 1.06. For the same compound, the relative viability (ABC-1; first compound 1 µM) was 1.11, the relative viability (NCI-H322M; first compound 0.01 µM) was 0.94 and the relative viability (NCI-H322M; first compound 0.03162 µM) was 0.842. It also gave a relative viability (NCI-H322M; first compound 0.3162 µM) of 0.943, a relative viability (NCI-H322M; first compound 1 µM) of 0.84 and a relative viability (NCI-H2009; first compound 0.01 µM) of 1.03. It also gave a relative viability (NCI-H2009; first compound 0.03162 µM) of 0.921, a relative viability (NCI-H2009; first compound 0.1 µM) of 1.02 and a relative viability (NCI-H2009; first compound 0.3162 µM) of 0.995. For the same compound, the relative viability (NCI-H2009; first compound 1 µM) was 0.935, the relative viability (LK-2; first compound 0.01 µM) was 0.227 and the relative viability (LK-2; first compound 0.03162 µM) was 0.258. For the same compound, the relative viability (LK-2; first compound 0.1 µM) was 0.219, the relative viability (LK-2; first compound 0.3162 µM) was 0.193 and the relative viability (LK-2; first compound 1 µM) was 0.243. For the same compound, the relative viability (HOP-62; first compound 0.01 µM) was 1.06, the relative viability (HOP-62; first compound 0.03162 µM) was 0.931 and the relative viability (HOP-62; first compound 0.1 µM) was 0.931. The relative viability (HOP-62; first compound 0.3162 µM) was 0.945, the relative viability (HOP-62; first compound 1 µM) was 1.04 and the relative viability (NCI-H1944; first compound 0.01 µM) was 1.05. For the same compound, the relative viability (NCI-H1944; first compound 0.03162 µM) was 1.03, the relative viability (NCI-H1944; first compound 0.1 µM) was 1.18 and the relative viability (NCI-H1944; first compound 0.3162 µM) was 1.03. The relative viability (NCI-H1944; first compound 1 µM) was 1.04, the relative viability (NCI-H2228; first compound 0.03162 µM) was 0.479 and the relative viability (NCI-H2228; first compound 0.1 µM) was 0.501. The relative viability (NCI-H2228; first compound 0.3162 µM) was 0.403, the relative viability (NCI-H2228; first compound 1 µM) was 0.471 and the relative viability (A-427; first compound 0.01 µM) was 0.983. For the same compound, the relative viability (A-427; first compound 0.03162 µM) was 0.851, the relative viability (A-427; first compound 0.1 µM) was 0.807 and the relative viability (A-427; first compound 0.3162 µM) was 0.787. For the same compound, the relative viability (A-427; first compound 1 µM) was 0.925, the relative viability (SW 1573; first compound 0.01 µM) was 0.787 and the relative viability (SW 1573; first compound 0.03162 µM) was 0.805. For the same compound, the relative viability (SW 1573; first compound 0.1 µM) was 0.808, the relative viability (SW 1573; first compound 0.3162 µM) was 0.74 and the relative viability (SW 1573; first compound 1 µM) was 0.752. It also gave a relative viability (NCI-H2170; first compound 0.01 µM) of 1.24, a relative viability (NCI-H2170; first compound 0.03162 µM) of 1.17 and a relative viability (NCI-H2170; first compound 0.1 µM) of 1.24. The relative viability (NCI-H2170; first compound 0.3162 µM) was 1.12, the relative viability (NCI-H2170; first compound 1 µM) was 1.17 and the relative viability (NCI-H596; first compound 0.01 µM) was 0.992. It also gave a relative viability (NCI-H596; first compound 0.03162 µM) of 0.997, a relative viability (NCI-H596; first compound 0.1 µM) of 0.907 and a relative viability (NCI-H596; first compound 0.3162 µM) of 0.948. The relative viability (NCI-H596; first compound 1 µM) was 0.882, the relative viability (PC-3 [JPC-3]; first compound 0.01 µM) was 0.931 and the relative viability (PC-3 [JPC-3]; first compound 0.03162 µM) was 0.903. It also gave a relative viability (PC-3 [JPC-3]; first compound 0.1 µM) of 0.938, a relative viability (PC-3 [JPC-3]; first compound 0.3162 µM) of 0.941 and a relative viability (PC-3 [JPC-3]; first compound 1 µM) of 1.01. It also gave a relative viability (LXF-289; first compound 0.01 µM) of 0.814, a relative viability (LXF-289; first compound 0.03162 µM) of 0.806 and a relative viability (LXF-289; first compound 0.1 µM) of 0.794. The relative viability (LXF-289; first compound 0.3162 µM) was 0.789, the relative viability (LXF-289; first compound 1 µM) was 0.755 and the relative viability (NCI-H1792; first compound 0.01 µM) was 0.967. For the same compound, the relative viability (NCI-H1792; first compound 0.03162 µM) was 0.923, the relative viability (NCI-H1792; first compound 0.1 µM) was 0.741 and the relative viability (NCI-H1792; first compound 0.3162 µM) was 0.939. It also gave a relative viability (NCI-H1792; first compound 1 µM) of 0.95, a relative viability (HARA; first compound 0.01 µM) of 0.996 and a relative viability (HARA; first compound 0.03162 µM) of 1.05. The relative viability (HARA; first compound 0.1 µM) was 1.26, the relative viability (HARA; first compound 0.3162 µM) was 1.13 and the relative viability (HARA; first compound 1 µM) was 0.988. It also gave a relative viability (NCI-H1993; first compound 0.01 µM) of 0.858, a relative viability (NCI-H1993; first compound 0.03162 µM) of 0.93 and a relative viability (NCI-H1993; first compound 0.1 µM) of 0.928. The relative viability (NCI-H1993; first compound 0.3162 µM) was 0.862 and the relative viability (NCI-H1993; first compound 1 µM) was 0.943.
